Data on one compound can be found in US11260083B2, “Compositions and methods for treating and preventing graft versus host disease” (The Regents of the University of Michigan, priority 2016, dated 2022).

For one experiment, the system named is IECs. The experiment is described as follows: qPCR of butyrate treated IECs in vitro. It counts as cell-based, mouse. The protocol:
(§1) mRNA was isolated from samples using RNeasy kit following manufacturers instructions (Qiagen; Venlo, Netherlands). Using 1 μg of each mRNA template, cDNA was synthesized using SuperScript VILO (Invitrogen; Carlsbad, Calif.). qPCR primers were designed for murine targets. All primers were verified for the production of a single specific PCR product using a melting curve program and are shown below in Table 2.
It was hypothesized that butyrate would increase anti-apoptotic genes by modulation of histone acetylation. […] It was also determined if the restored acetylation of histone H4 observed in butyrate-treated allo-BMT recipients was responsible for increased BCL-B (Bcl2110) and JAM (F11r) expression via ChIP.

For experiment [1], the system named is CD326+ intestinal epithelial cells (IECs). Briefly: Western blot / qPCR of CD326+ IECs isolated from BMT recipients. It counts as in vivo, mouse. The procedure:
CD326+ purified IECs were harvested from animals that received syngeneic (BALB/c→BALB/c) or allogeneic (C57BL/6J→BALB/c) BMT. Whole cell lysates were next obtained and protein concentrations determined with Pierce BCA Protein Assay (Thermo Scientific). Equal amounts of protein (20 μg) were separated by SDS-PAGE gel electrophoresis (120V, 1.5 h) and subsequently transferred to polyvinylidene difluoride (PVDF) membrane using a Bio-Rad semi-dry transfer cell (Hercules, Calif.) (20V, lh). The following antibodies were used to analyze the membranes with dilutions in accordance with the manufacturers specification sheet: α-tubulin (Cell Signaling, clone 11H10), Acetyl histone H4 (Lys5/8/12/16) (EMD Millipore, clone 3HH-4C10), SLC5A8 (abcam), GPR43 (abcam), Occludin (abcam, clone EPR8208), JAM (abcam, clone EP1042Y), and Claudin 5 (abcam). Secondary anti-rabbit antibody conjugated to HRP (Jackson ImmunoResearch, Cat No. 111-035-003) was used to detect primary antibodies, where needed. Densitometric analysis was performed using ImageJ software (National Institutes of Health; Bethesda, […].).
as §1
It was next determined if the reduced amount of butyrate in IECs could be restored in vivo and further, whether this would have a functional impact on histone acetylation. In addition to utilizing transporters, butyrate can also diffuse across the mucosal barrier into IECs when present in high concentrations (Ganapathy, V., Thangaraju, M., Prasad, P. D., Martin, P. M. & Singh, N. Transporters and receptors for short-chain fatty acids as the molecular link between colonic bacteria and the host. Curr Opin Pharmacol 13, 869-874 (2013); Charney, A. N., Micic, L. & Egnor, R. W. Nonionic diffusion of short-chain fatty acids across rat colon. Am. J Physiol. 274, G518-24 (1998)). Therefore, it was hypothesized that administration of high amounts of butyrate locally would restore histone acetylation of IECs, in vivo. To test this, C57BL/6J cells were transferred to Balb/c mice and administered vehicle or butyrate via daily intragastric gavage.
To determine if these are involved in in vivo protection from GVHD, the expression of pro- and anti-apoptotic proteins as well as junctional proteins in IECs isolated 21 days following allo-BMT was determined. […] Overall, the results identify several ways in which butyrate can directly enhance epithelial cell function ranging from protection from irradiation and allo-T cell mediated apoptosis to proliferation and junctional protein expression, both in vitro and in vivo.

Another experiment deals with IEC junction. Briefly: Transmission electron microscopy of intestines, ruthenium red. It counts as in vivo, mouse. The note with it: day 7 and day 21; allo-BMT recipients, intragastric butyrate. An excerpt:
Samples were stained as previously described (Soler, A. P. et al. Increased tight junctional permeability is associated with the development of colon cancer. Carcinogenesis 20, 1425-1431 (1999)). Briefly, the intestines from mice that received butyrate or vehicle treatment were harvested 7 days and 21 days following syngeneic and allogeneic BMT and flushed with 0.1 M Sorensen's phosphate buffer (pH 7.4) to remove luminal contents using a 20G needle. The intestines were next gently flushed with 0.1% ruthenium red (RR) containing 2.5% glutaraldehyde fixative in Sorensen's buffer and immediately placed in a dish containing the stain/fixative. Cross sections were immediately sliced (2 mm wide) from the duodenum, jejunum, and illium. The tissue was then rinsed three times with Sorensen's buffer, containing 0.1 percent RR and post-fixed for one hour in one percent osmium tetroxide in the same buffer containing RR. […] Images were recorded digitally using a Hamamatsu ORCA-HR digital camera system operated using AMT software (Advanced Microscopy Techniques Corp., Danvers, Mass.).
Intestinal permeability after allo-BMT was assessed by intragastric administration of FITC-dextran, a non-metabolized carbohydrate (Hanash, A. M. et al. Interleukin-22 protects intestinal stem cells from immune-mediated tissue damage and regulates sensitivity to graft versus host disease. Immunity 37, 339-350 (2012)).

The next experiment has as its system intestinal organoids. The experiment is described as follows: Intestinal organoid culture with butyrate. It counts as cell-based, mouse. The procedure: The potential mechanisms that contribute to butyrate-induced protection from severe GVHD were explored. Because (a) butyrate is decreased in IECs, (b) administration of butyrate mitigated GI GVHD independent of Treg cells, but (c) improved junction integrity, it was explored whether butyrate had direct effects on protecting IECs from allo-T cell mediated damage and conditioning. IECs were treated ex vivo with vehicle or butyrate for 24 hours irradiation (6 Gy) or no-irradition, followed by 24 hours of additional incubation with butyrate was performed. […] The ability of butyrate-treated IECs to withstand damage mediated by alloreactive T cells was determined by isolating and culturing primary IECs with butyrate or vehicle control, overnight. The pre-treated IECs were next co-cultured with primed allogeneic CD8+ T cells, in the absence of butyrate. […] Because butyrate is a primary energy source for IECs 1-13, it was next determined whether butyrate enhances survival and growth of IECs in vitro. To this end, intestinal organoids were cultured in the presence or absence of butyrate. […] Next, the impact of butyrate on IEC junctional function in the organoid cultures was confirmed by determining the mRNA expression of claudins (FIG. 5E).

The mark [2] stands for this setting: IECs following butyrate treatment.
Setting [3] is: 21 days following allo-BMT, intragastric butyrate.

As to `CCCC(=O)[O-].[Na+]` [butyrate, sodium butyrate], in the experiment with IECs (setting [2]), the “mRNA expression of JAM (F11r)” value is listed as “significantly increased” and the “mRNA expression of occludin (Ocln)” value was “significantly increased”. In addition, in the experiment on IECs (butyrate treated IECs), the “Bakl mRNA expression” value is recorded as “significantly decreased”, the “Bax mRNA expression” value is on record as “significantly decreased” and the “transcripts of BCL-B (Bcl2110)” value is “significantly increased”. Besides, in experiment [1] (21 days following allo-BMT, butyrate treated animals), the “gene expression of junctional proteins in IECs” value was “similarly increased”. For the same compound, in experiment [1] (setting [3]), the “BCL-B (Bcl2110) expression in IECs” value is recorded as “increased”, the “transcripts of Bak1 in IECs” value is reported as “significantly decreased” and the “transcripts of Bax in IECs” value is given as “significantly decreased”. Further, the “acetylation of histone H4 in IECs” value in experiment [1] (C57BL/6J→Balb/c, daily intragastric butyrate for 21 days, vs untreated allo-BMT recipients) is “significantly restored”. Further, the “butyrate transporter SLC5A8 in IECs” value in experiment [1] (daily intragastric gavage of butyrate) is on record as “increase”. In experiment [1] (recipients of allo-BMT treated with intragastric butyrate), the “protein amounts of Occludin, JAM and Claudin 5 (immunoblot)” value is reported as “increased junctional proteins”. Besides, the “integrity of the IEC junction (TEM)” value with IEC junction was “preserved”. Moreover, in the experiment with intestinal organoids (culture in the presence of butyrate), the organoid size entry is reported as “significantly increased”. Further, in the experiment with intestinal organoids (organoids cultured with butyrate), the “mRNA expression of claudins (Cldn1, Cldn5, Cldn6, Cldn10, Cldn11, Cldn13, Cldn14, Cldn17, Cldn18)” value is “significantly increased”.
